Laboratory results taken from US12351855B2, “Bioelectronic circuits, systems and methods for preparing and using them” (priority 2019, dated 2025).
Non-standard residues stand in square brackets, D forms with d.

Columns and labels:
IgG Anti-HIV = assay type: binding
IgG Anti-Ebola = assay type: binding
IgE Anti-DNP = assay type: binding, mouse
αVβ3 Integrin = αVβ3 Integrin (Homo sapiens, UniProt P05106+P06756); conditions: Table 1 adapted from Zhang et al.; not among the SPR-measured affinities; cited from earlier work
DNA template = test: Rolling-circle amplification of a DNA template, DNA gel of polymerization product; assay type: biochemical; conditions: polymerase bound by two streptavidin molecules; versus native enzyme with exonuclease activity deleted
Description: To confirm that the modified polymerase was still active, rolling-circle amplification of a DNA template was carried out with the molecule 35 as bound by two streptavidin molecules.

αVβ3 Integrin, sequence (P06756 31-889 limits assumed): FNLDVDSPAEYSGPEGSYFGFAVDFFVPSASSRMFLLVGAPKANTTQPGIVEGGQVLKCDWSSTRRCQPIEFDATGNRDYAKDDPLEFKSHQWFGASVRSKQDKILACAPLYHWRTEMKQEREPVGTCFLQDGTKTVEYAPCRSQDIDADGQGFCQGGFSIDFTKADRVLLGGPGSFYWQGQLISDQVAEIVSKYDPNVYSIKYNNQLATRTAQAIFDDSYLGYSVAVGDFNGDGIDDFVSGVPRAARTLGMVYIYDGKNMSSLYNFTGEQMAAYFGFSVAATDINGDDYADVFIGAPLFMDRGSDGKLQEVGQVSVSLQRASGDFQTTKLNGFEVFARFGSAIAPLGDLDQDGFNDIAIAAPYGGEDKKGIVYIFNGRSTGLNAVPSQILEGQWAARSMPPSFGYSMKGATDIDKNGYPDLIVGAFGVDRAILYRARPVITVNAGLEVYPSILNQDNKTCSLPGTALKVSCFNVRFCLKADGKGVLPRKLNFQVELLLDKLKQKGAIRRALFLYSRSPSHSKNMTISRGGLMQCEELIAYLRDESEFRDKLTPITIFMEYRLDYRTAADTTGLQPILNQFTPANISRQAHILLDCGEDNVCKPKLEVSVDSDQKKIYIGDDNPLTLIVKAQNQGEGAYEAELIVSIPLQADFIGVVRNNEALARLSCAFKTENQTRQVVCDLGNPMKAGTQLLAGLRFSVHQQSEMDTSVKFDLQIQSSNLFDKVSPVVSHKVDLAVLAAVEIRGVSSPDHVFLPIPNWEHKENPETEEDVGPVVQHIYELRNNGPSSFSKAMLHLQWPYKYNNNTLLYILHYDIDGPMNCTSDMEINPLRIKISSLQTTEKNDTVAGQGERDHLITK
αVβ3 Integrin, sequence (P06756 891-1048 partner limits assumed): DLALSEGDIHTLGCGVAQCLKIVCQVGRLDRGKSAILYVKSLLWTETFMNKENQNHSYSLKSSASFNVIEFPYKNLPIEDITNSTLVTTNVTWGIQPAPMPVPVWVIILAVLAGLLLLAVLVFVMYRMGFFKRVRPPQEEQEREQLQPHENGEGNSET
αVβ3 Integrin, sequence (P05106 27-788): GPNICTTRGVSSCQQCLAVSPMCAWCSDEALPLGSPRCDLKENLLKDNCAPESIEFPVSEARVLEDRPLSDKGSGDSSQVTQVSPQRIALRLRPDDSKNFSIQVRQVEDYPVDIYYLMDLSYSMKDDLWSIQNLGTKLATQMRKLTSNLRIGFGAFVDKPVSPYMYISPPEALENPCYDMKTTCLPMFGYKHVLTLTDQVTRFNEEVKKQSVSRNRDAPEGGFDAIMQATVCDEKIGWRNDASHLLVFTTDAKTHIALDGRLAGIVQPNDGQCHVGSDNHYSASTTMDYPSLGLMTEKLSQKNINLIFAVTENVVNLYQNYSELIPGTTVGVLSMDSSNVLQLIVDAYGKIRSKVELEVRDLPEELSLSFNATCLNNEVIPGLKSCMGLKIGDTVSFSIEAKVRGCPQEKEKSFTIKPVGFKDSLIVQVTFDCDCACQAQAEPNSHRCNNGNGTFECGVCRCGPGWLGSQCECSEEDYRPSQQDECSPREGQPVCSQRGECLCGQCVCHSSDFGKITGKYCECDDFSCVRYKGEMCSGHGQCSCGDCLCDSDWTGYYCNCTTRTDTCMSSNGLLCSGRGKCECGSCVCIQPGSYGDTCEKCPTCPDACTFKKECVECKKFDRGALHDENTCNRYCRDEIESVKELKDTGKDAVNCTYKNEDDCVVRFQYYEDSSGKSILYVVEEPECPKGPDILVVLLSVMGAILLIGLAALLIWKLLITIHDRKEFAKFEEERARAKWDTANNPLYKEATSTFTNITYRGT

**Q.** For CALDRWEKIRLR, which Kd (IgG Anti-HIV) is on record?
**A.** The Kd was 240 nM.

**Q.** With CHNTPVYKLDISEATQV as the molecule, how does the Kd (IgG Anti-Ebola) read?
**A.** The Kd was 1400 nM.

**Q.** With HSCH2CH2-dinitrophenol as the molecule, how does the Kd (IgE Anti-DNP) read?
**A.** The Kd was 65 nM.

**Q.** Which Kd (αVβ3 Integrin) does the source give for cyclo(RGD[dF]C) [Cyclic RGDfC] here?
**A.** Its Kd is ~10 nM.

B1: bis-biotinylated polymerase: exonuclease-deleted ϕ29 polymerase with biotinylated Avitags inserted between G111/K112 and E279/D280 (protein)
chain: MKHMPRKMYSCAFATTTKVEDCRVWAYGYMNIEDHSEYKIGNSLDEFMAWVLKVQADLYFHNLKFDGAFIINWLERNGFKWSADGLPNTYNTIISRMGQWYMIDICLGYKGGLNDIFEAQKIEWHEKRKIHTVIYDSLKKLPFPVKKIAKDFKLTVLKGDIDYHKERPVGYKITPEEYAYIKNDIQIIAEALLIQFKQGLDRMTAGSDSLKGFKDIITTKKFKKVFPTLSLGLDKEVRYAYRGGFTWLNDRFKEKEIGEGMVFDVNSLYPAQMYSRLLPYGEPIVFEGKYVWDEGLNDIFEAQKIEWHEDYPLHIQHIRCEFELKEGYIPTIQIKRSRFYKGNEYLKSSGGEIADLWLSNVDLELMKEHYDLYNVEYISGLKFKATTGLFKDFIDKWTYIKTTSEGAIKQLAKLMLNSLYGKFASNPDVTGKVPYLKENGALGFRLGEEETKDPVYTPMGVFITAWARYTTITAAQACYDRIIYCDTDSIHLTGTEIPDVIKDIVDPKKLGYWAHESTFKRAKYLRQKTYIQDIYMKEVDGKLVEGSPDDYTDIKFSVKCAGMTDKIKKEVTFENFKVGFSRKMKPKPVQVPGGVVLVDDTFTIK
**Q.** With B1 as the molecule, how does the polymerase activity (DNA template) read?
**A.** Its polymerase activity is “comparable to that of the native enzyme”.
